Source: the supplement of paper PMC10307832

What follows are cell lines tested with C[C@]1(c2nc3c(C(N)=O)cccc3[nH]2)CCCN1 [Veliparib] + COc1cccc2cc(-c3nc([C@H]4CC[C@H](C(=O)O)CC4)n4ncnc(N)c34)[nH]c12 [OSI-027] (partner 0.5 µM) (assay: relative viability (nuclei count vs DMSO), 5 days (fraction); higher = more cells survive). Conditions: first compound 0.02 µM.
Summary of the method: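 Relative viability divides the nuclei count in treated wells by that in vehicle wells. Lung cancer cell lines were seeded in 1536-well plates, dosed by pin tool the next day, and fixed and stained after 5 days in one step with final 0.05% Triton X-100, 1% formaldehyde and 1 ug/ml Hoechst. Dosing was a single drug or a fixed anchor-drug dose plus five library-drug doses (not always all listed) in √10 steps, and values are medians of duplicate plates imaged at 4×.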
NCI-H1437 gave a relative viability of 0.694.
NCI-H596 showed a relative viability of 0.805.
With NCI-H460 the relative viability was 0.677.
In the case of EMC-BAC-2, the relative viability is reported as 0.346.
NCI-H2009 showed a relative viability of 0.63.
Cell Line COR-L 105 has a relative viability of 0.462.
Work on NCI-H1395 yielded a relative viability of 0.494.
NCI-H520 gave a relative viability of 0.224.
Work on NCI-H1648 yielded a relative viability of 0.255.
NCI-H358 was tested, and the relative viability was 0.496.
For HCC-78, the relative viability was 0.4.
EKVX was tested, and the relative viability was 0.629.
In the case of EPLC-272H, the relative viability is reported as 0.227.
LK-2 gave a relative viability of 0.164.
Cell Line PC-14 has a relative viability of 0.292.
LXF-289 was tested, and the relative viability was 0.836.
In the case of NCI-H522, the relative viability is reported as 0.679.
In the case of LCLC-103H, the relative viability is reported as 0.464.
Work on NCI-H1793 yielded a relative viability of 0.317.
ChaGo-K-1 showed a relative viability of 0.266.
NCI-H441 gave a relative viability of 0.622.
NCI-H2170 showed a relative viability of 0.771.

Same assay, conditions: first compound 0.06325 µM
For NCI-H2342, the relative viability was 0.558.
Cell Line NCI-H1623 has a relative viability of 0.362.
LU99A gave a relative viability of 0.303.
Work on NCI-H1975 yielded a relative viability of 0.674.
In the case of H3255, the relative viability is reported as 0.681.
For NCI-H2023, the relative viability was 0.398.
NCI-H2405 showed a relative viability of 0.595.
SK-LU-1 showed a relative viability of 0.316.
For NCI-H1734, the relative viability was 0.575.
Work on NCI-H1437 yielded a relative viability of 0.959.
ABC-1 showed a relative viability of 0.429.
NCI-H596 gave a relative viability of 0.696.
In the case of HCC-15, the relative viability is reported as 0.641.
Cell Line NCI-H460 has a relative viability of 0.63.
EMC-BAC-2 gave a relative viability of 0.318.
NCI-H2009 gave a relative viability of 0.645.
COR-L 105 showed a relative viability of 0.715.
NCI-H1395 was tested, and the relative viability was 0.576.
NCI-H520 gave a relative viability of 0.309.
For NCI-H1648, the relative viability was 0.262.
NCI-H358 gave a relative viability of 0.715.
HCC-78 was tested, and the relative viability was 0.364.
Work on EKVX yielded a relative viability of 0.646.
In the case of NCI-H1650, the relative viability is reported as 0.501.
Work on EPLC-272H yielded a relative viability of 0.273.
LK-2 was tested, and the relative viability was 0.204.
For PC-14, the relative viability was 0.774.
LXF-289 was tested, and the relative viability was 0.781.
For NCI-H522, the relative viability was 0.731.
With LCLC-103H the relative viability was 0.434.
For NCI-H1793, the relative viability was 0.265.
Cell Line ChaGo-K-1 has a relative viability of 0.519.
NCI-H441 gave a relative viability of 0.539.
Cell Line NCI-H2170 has a relative viability of 0.748.

Same assay, conditions: first compound 0.2 µM
Cell Line NCI-H2342 has a relative viability of 0.649.
NCI-H1623 showed a relative viability of 0.425.
In the case of LU99A, the relative viability is reported as 0.27.
NCI-H1975 gave a relative viability of 0.676.
H3255 gave a relative viability of 0.584.
For NCI-H2023, the relative viability was 0.442.
NCI-H2405 gave a relative viability of 0.619.
SK-LU-1 showed a relative viability of 0.381.
With NCI-H1734 the relative viability was 0.57.
For NCI-H1437, the relative viability was 0.878.
For ABC-1, the relative viability was 0.618.
For NCI-H596, the relative viability was 0.779.
Work on HCC-15 yielded a relative viability of 0.7.
Work on NCI-H460 yielded a relative viability of 0.621.
EMC-BAC-2 was tested, and the relative viability was 0.379.
Cell Line NCI-H2009 has a relative viability of 0.672.
For COR-L 105, the relative viability was 0.651.
For NCI-H1395, the relative viability was 0.548.
NCI-H520 was tested, and the relative viability was 0.276.
NCI-H1648 was tested, and the relative viability was 0.249.
NCI-H358 showed a relative viability of 0.796.
HCC-78 showed a relative viability of 0.339.
With EKVX the relative viability was 0.63.
NCI-H1650 gave a relative viability of 0.691.
Cell Line EPLC-272H has a relative viability of 0.265.
For LK-2, the relative viability was 0.229.
In the case of PC-14, the relative viability is reported as 0.82.
LXF-289 gave a relative viability of 0.799.
SW 900 showed a relative viability of 0.675.
Work on NCI-H522 yielded a relative viability of 0.888.
For LCLC-103H, the relative viability was 0.462.
In the case of NCI-H1793, the relative viability is reported as 0.31.
Cell Line ChaGo-K-1 has a relative viability of 0.513.
Cell Line NCI-H441 has a relative viability of 0.553.
With NCI-H2170 the relative viability was 0.741.

Same assay, conditions: first compound 0.6325 µM
NCI-H2342 was tested, and the relative viability was 0.687.
In the case of NCI-H1623, the relative viability is reported as 0.42.
LU99A was tested, and the relative viability was 0.266.
NCI-H1975 showed a relative viability of 0.677.
For H3255, the relative viability was 0.545.
NCI-H2023 was tested, and the relative viability was 0.347.
NCI-H2405 was tested, and the relative viability was 0.654.
With SK-LU-1 the relative viability was 0.307.
NCI-H1734 gave a relative viability of 0.585.
With NCI-H1437 the relative viability was 0.759.
ABC-1 gave a relative viability of 0.493.
NCI-H596 was tested, and the relative viability was 0.783.
Cell Line HCC-15 has a relative viability of 0.619.
For NCI-H460, the relative viability was 0.583.
In the case of EMC-BAC-2, the relative viability is reported as 0.349.
In the case of NCI-H2009, the relative viability is reported as 0.586.
COR-L 105 showed a relative viability of 0.626.
NCI-H1395 was tested, and the relative viability was 0.579.
NCI-H520 showed a relative viability of 0.231.
NCI-H1648 gave a relative viability of 0.278.
Cell Line NCI-H358 has a relative viability of 0.611.
Work on HCC-78 yielded a relative viability of 0.402.
EKVX was tested, and the relative viability was 0.639.
NCI-H1650 gave a relative viability of 0.502.
EPLC-272H was tested, and the relative viability was 0.26.
For LK-2, the relative viability was 0.263.
In the case of PC-14, the relative viability is reported as 0.743.
For LXF-289, the relative viability was 0.711.
With SW 900 the relative viability was 0.582.
Work on NCI-H522 yielded a relative viability of 0.689.
With LCLC-103H the relative viability was 0.466.
For NCI-H1793, the relative viability was 0.286.
With ChaGo-K-1 the relative viability was 0.589.
NCI-H441 showed a relative viability of 0.585.
Cell Line NCI-H2170 has a relative viability of 0.683.

Same assay, conditions: first compound 2 µM
In the case of NCI-H2342, the relative viability is reported as 0.572.
For NCI-H1623, the relative viability was 0.431.
LU99A was tested, and the relative viability was 0.323.
NCI-H1975 was tested, and the relative viability was 0.68.
H3255 was tested, and the relative viability was 0.584.
NCI-H2023 showed a relative viability of 0.432.
NCI-H2405 was tested, and the relative viability was 0.365.
SK-LU-1 was tested, and the relative viability was 0.343.
With NCI-H1734 the relative viability was 0.67.
With NCI-H1437 the relative viability was 0.844.
In the case of ABC-1, the relative viability is reported as 0.312.
With NCI-H596 the relative viability was 0.68.
HCC-15 gave a relative viability of 0.603.
Work on NCI-H460 yielded a relative viability of 0.632.
Work on EMC-BAC-2 yielded a relative viability of 0.345.
With NCI-H2009 the relative viability was 0.672.
COR-L 105 showed a relative viability of 0.654.
With NCI-H1395 the relative viability was 0.523.
NCI-H520 gave a relative viability of 0.234.
NCI-H1648 showed a relative viability of 0.251.
NCI-H358 showed a relative viability of 0.698.
Cell Line HCC-78 has a relative viability of 0.423.
Cell Line EKVX has a relative viability of 0.675.
In the case of NCI-H1650, the relative viability is reported as 0.561.
For EPLC-272H, the relative viability was 0.344.
Cell Line LK-2 has a relative viability of 0.206.
Work on PC-14 yielded a relative viability of 0.866.
Cell Line LXF-289 has a relative viability of 0.759.
For SW 900, the relative viability was 0.413.
In the case of NCI-H522, the relative viability is reported as 0.732.
LCLC-103H showed a relative viability of 0.5.
NCI-H1793 showed a relative viability of 0.262.
ChaGo-K-1 gave a relative viability of 0.55.
NCI-H441 showed a relative viability of 0.617.
In the case of NCI-H2170, the relative viability is reported as 0.617.
